Here are results for 41 molecules from patent US20240246980A1, “MODULATORS OF MAS-RELATED G-PROTEIN RECEPTOR D AND RELATED PRODUCTS AND METHODS” (Escient Pharmaceuticals, Inc., priority 2022, published 2024).

Structures are written as SMILES.

The experiment deals with human MRGPRD (Homo sapiens, UniProt Q8TDS7). The experiment in a line: MRGPRD antagonist activity, IP-One HTRF assay in CHO cells stably expressing human MRGPRD (versus 100 μM β-Alanine agonist). Type of experiment: cell-based. The gist of the method: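 Cells (20,000/well, plated overnight) received antagonist and agonist in buffer with 5.7 mM Tris-HCl, 43 mM NaCl and 50 mM LiCl at pH 8. Incubation ran 1 h at 37 °C, then 1 h at room temperature, before IP-1 HTRF detection. IC50 was fitted from the HTRF ratio, and percent antagonism was taken relative to the maximum efficacy response, given as averages with SEM.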
For orientation: TR-FRET usually uses a lanthanide donor and a delayed reading to cut background.

human MRGPRD, sequence (Q8TDS7 whole entry): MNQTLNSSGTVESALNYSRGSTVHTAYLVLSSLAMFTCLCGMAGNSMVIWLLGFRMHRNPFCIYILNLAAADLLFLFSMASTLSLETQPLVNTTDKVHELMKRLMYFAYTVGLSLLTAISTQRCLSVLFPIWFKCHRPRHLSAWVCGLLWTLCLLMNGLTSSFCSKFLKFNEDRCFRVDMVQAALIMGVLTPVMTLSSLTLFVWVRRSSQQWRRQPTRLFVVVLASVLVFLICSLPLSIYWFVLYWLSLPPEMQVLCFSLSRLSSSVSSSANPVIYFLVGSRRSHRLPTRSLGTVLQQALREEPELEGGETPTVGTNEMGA

Usually IC50 stands for the concentration that inhibits the measured activity by half. `COc1cccc(-c2nc([C@@H]3CCCN(C(=O)N[C@H]4CC[C@@H](O)CC4)C3)n3ccccc23)c1` [Compound 5-56]: the IC50 fell in the range of 100 to 500 nM. With `CN(C)c1ccc(NC(=O)N2CCC[C@@H](c3nc(-c4cccc(-c5ccccc5)c4)c4ccccn34)C2)cc1` [Compound 10-10] the figure was > 3000 nM; with `COc1cccc(-c2nc(C3CCCN(C(=O)Nc4ccccc4F)C3)n3c(OC)cccc23)c1` (centres unmarked) [Compound 13-1, N-(2-fluorophenyl)-3-(5-methoxy-1-(3-methoxyphenyl)imidazo[1,5-a]pyridin-3-yl)piperidine-1-carboxamide], 100 to 500 nM. As for `COc1cccc(-c2nc(C3CCCN(C(=O)Nc4cc(OC)c(OC)c(OC)c4)C3)n3ccccc23)c1` (centres unmarked) [Compound 4-2, 3-(1-(3-methoxyphenyl)imidazo[1,5-a]pyridin-3-yl)-N-(3,4,5-trimethoxyphenyl)piperidine-1-carboxamide], the IC50 is < 100 nM.

Take `CC(C)Oc1cccc(-c2nc([C@@H]3CCCN(C(=O)Nc4ccc(N(C)C)cc4)C3)n3ccccc23)c1` [Compound 10-13]: the IC50 fell in the range of 500 to 1000 nM. On to `COc1cccc(-c2nc(-c3ccc(C(=O)Nc4ccc(N(C)C)cc4)s3)n3ccccc23)c1` [Compound 25-1, N-(4-(dimethylamino)phenyl)-5-(1-(3-methoxyphenyl)imidazo[1,5-a]pyridin-3-yl)thiophene-2-carboxamide], for which the IC50 is 1000 to 3000 nM. For the molecule `CN(C)c1ccc(NC(=O)N2CCC[C@@H](c3nc(-c4ccc5c(c4)OCO5)c4ccccn34)C2)cc1` [Compound 10-27], the IC50 lay within 500 to 1000 nM. With `COc1cccc(-c2nc(C3CCCN(C(=O)Nc4ccc(OC)cc4C)C3)n3ccccc23)c1` (centres unmarked) [Compound 3-12], the IC50 is 100 to 500 nM. `COc1cccc(-c2nc(C3CCCN(C(=O)Nc4cccc(C)c4)C3)n3ccccc23)c1` (centres unmarked) [Compound 3-2] yielded an IC50 of 100 to 500 nM. In the case of `CN(C)c1ccc(NC(=O)N2CCC[C@@H](c3nc(-c4cnn(Cc5ccccc5)c4)c4ccccn34)C2)cc1` [Compound 10-52], the IC50 was 1000 to 3000 nM. Consider `COc1cccc(-c2nc([C@@H]3CCCN(C(=O)Nc4ccc(C(C)=O)cc4)C3)n3ccccc23)c1` [Compound 5-24], for which the 50% inhibitory concentration (IC50) was < 100 nM.

For `COc1cccc(-c2nc([C@@H]3CCCN(C(=O)Nc4ccc(N(C)C)c(F)c4)C3)n3ccccc23)c1` [Compound 1-6], the IC50 was < 100 nM. For `COc1cccc(-c2nc([C@@H]3CCCN(C(=O)Nc4ccc5c(c4)CCC(C)(C)O5)C3)n3ccccc23)c1` [Compound 5-47], the IC50 was < 100 nM. The value for `CCc1cccc(NC(=O)N2CCCC(c3nc(-c4cccc(OC)c4)c4ccccn34)C2)c1` (centres unmarked) [Compound 3-18] was > 3000 nM; that for `COc1cccc(-c2nc(C3CCN(C(=O)Nc4ccc(N(C)C)cc4)CC3)n3ccccc23)c1` [Compound 5-9] was > 3000 nM; that for `CC(C)Cn1nc(C(F)(F)F)cc1-c1nc([C@@H]2CCCN(C(=O)Nc3ccc(N(C)C)cc3)C2)n2ccccc12` [Compound 10-69] was 500 to 1000 nM. The value for `COc1cccc(-c2nc(C3CCCN(C(=O)N(C)c4cccc(F)c4)C3)n3ccccc23)c1` (centres unmarked) [Compound 1-4] was 500 to 1000 nM.

With `COc1cccc(-c2nc([C@@H]3CCCN(C(=O)Nc4cccc(C(C)=O)c4)C3)n3ccccc23)c1` [Compound 5-15], the IC50 was < 100 nM. On to `COc1cccc(-c2nc(C3CCCN(C(=O)c4ccc(OC)cc4C)C3)n3ccccc23)c1` (centres unmarked) [Compound 12-9], for which the IC50 was 500 to 1000 nM. With `COc1cccc(-c2nc(C3CCCN(C(=O)Nc4ccc(N(C)C)cc4)C3)c3ccccn23)c1` (centres unmarked) [Compound 26-1, N-(4-(dimethylamino)phenyl)-3-(3-(3-methoxyphenyl)imidazo[1,5-a]pyridin-1-yl)piperidine-1-carboxamide], the IC50 is < 100 nM. The value for `CCc1ccccc1-c1nc([C@@H]2CCCN(C(=O)Nc3ccc(N(C)C)cc3)C2)n2ccccc12` [Compound 10-21] was 100 to 500 nM; that for `COC(=O)c1cccc(-c2nc([C@@H]3CCCN(C(=O)Nc4ccc(N(C)C)cc4)C3)n3ccccc23)c1` [Compound 10-70] was < 100 nM; that for `CN(C)c1ccc(NC(=O)N2CCC[C@@H](c3nc(-c4ccccc4)c4ccccn34)C2)cc1` [Compound 10-2] was 500 to 1000 nM. With `COc1cccc(-c2nc(C3CN(C(=O)Nc4cccc(N(C)C)c4)C3)n3ccccc23)c1` [Compound 23-1, N-(3-(dimethylamino)phenyl)-3-(1-(3-methoxyphenyl)imidazo[1,5-a]pyridin-3-yl)azetidine-1-carboxamide] the figure was > 3000 nM; with `Cc1ccccc1-c1nc(C2CCCN(C(=O)Nc3ccccc3F)C2)n2ccccc12` (centres unmarked) [Compound 11-1], 1000 to 3000 nM; with `CCNC(=O)N1CCCC(c2nc(-c3cccc(OC)c3)c3ccccn23)C1` (centres unmarked) [Compound 3-9], 100 to 500 nM. Consider `COc1cccc(-c2nc([C@@H]3CCCN(C(=O)Nc4cccc(OC(F)(F)F)c4)C3)n3ccccc23)c1` [Compound 1-23], for which the IC50 lay within 500 to 1000 nM. With `COc1cccc(-c2nc([C@@H]3CCCN(C(=O)Nc4cnc5ccccn45)C3)n3ccccc23)c1` [Compound 5-62] the figure was < 100 nM.

Molecule `CN(C)c1ccc(NC(=O)N2CCC[C@@H](c3nc(-c4ccccc4C(F)(F)F)c4ccccn34)C2)cc1` [Compound 10-3] gave a half-maximal inhibitory concentration (IC50) of 500 to 1000 nM. The value for `COc1cccc(-c2nc([C@@H]3CCCN(C(=O)Nc4ccccc4N(C)C)C3)n3ccccc23)c1` [Compound 5-37] was 100 to 500 nM. With `COc1cccc(-c2nc(C3CCCN(C(=O)NC(C)(C)C)C3)n3ccccc23)c1` (centres unmarked) [Compound 3-10] the figure was 500 to 1000 nM; with `CN(C)c1ccc(NC(=O)N2CCC[C@@H](c3nc(-c4cccc(F)c4)c4ccccn34)C2)cc1` [Compound 10-42], 500 to 1000 nM. With `COc1cccc(-c2nc([C@@H]3CCCN(C(=O)NC4CC(C)C4)C3)n3ccccc23)c1` (some centres unmarked) [Compound 5-71] the figure was < 100 nM; with `COc1cccc(-c2nc([C@@H]3CCCN(C(=O)Nc4nc(C(C)C)ns4)C3)n3ccccc23)c1` [Compound 1-28], 100 to 500 nM. Regarding `COc1cccc(-c2nc(C3CCCN(C(=O)Nc4ccc(C#N)cc4)C3)n3ccccc23)c1` (centres unmarked) [Compound 4-4], the IC50 was in the range of 500 to 1000 nM. With `CN(C)c1ccc(NC(=O)N2CCC[C@@H](c3nc(-c4cccc5c4CCC5)c4ccccn34)C2)cc1` [Compound 10-50] the figure was < 100 nM. With `CN(C)c1ccc(NC(=O)N2CCC[C@@H](c3nc(-c4nn(C)c5ccccc45)c4ccccn34)C2)cc1` [Compound 10-68] the figure was 500 to 1000 nM; with `COc1cccc(-c2nc([C@@H]3CCCN(C(=O)Cc4cccc(F)c4)C3)n3ccccc23)c1` [Compound 12-13], 100 to 500 nM. The value for `COc1cccc(-c2nc([C@@H]3CCCN(C(=O)Nc4ccc(N(C)C)c(C)c4)C3)n3ccccc23)c1` [Compound 1-7] was < 100 nM; that for `COc1ccc(-c2nc([C@H]3CCCN(C(=O)Nc4ccc(N(C)C)cc4)C3)n3ccccc23)cc1` [Compound 10-48] was 1000 to 3000 nM. In the case of `CN(C)c1ccc(NC(=O)N2CCC[C@@H](c3nc(-c4cnn(CC5CC5)c4)c4ccccn34)C2)cc1` [Compound 10-62], the IC50 lay within 1000 to 3000 nM.
